Consider 1 compound from patent US20210322376A1, “METHODS FOR REDUCING THE RISK OF DIABETES IN PATIENTS BEING TREATED FOR HIGH CHOLESTEROL-RELATED ILLNESSES” (Esperion Therapeutics, Inc., priority 2018, published 2021).

The Tmax is the time at which the peak concentration occurs. Usually half-life stands for the time needed for the level to fall by half in the phase considered. Lower therefore signals rapid decline.

The nature of data set [1]: Example 3: bempedoic acid vs placebo, statin-intolerant patients on background ezetimibe, 12 weeks. Format: in vivo, human. Conditions: statin intolerant (31% low/very low dose statin), FIG. 6 and FIG. 7. From the text: (§1) Patients with diabetes were identified primarily through medical history and/or baseline lab results. No entry restrictions were placed on these patients with the exception of having a HbA1c <10% during screening. The use of background concomitant medications related to diabetes treatment was captured at the study outset. Changes in all concomitant medications were tracked during the treatment phase. No restrictions were placed on changes in diabetes medications (stopping, starting, or changing dose) during the trial.
269 total patients with statin intolerance (31% low/very dose statin) were treated for 12 weeks; all patients on background ezetimibe therapy. […] Patients were treated with bempedoic acid or placebo. The baseline HbA1c levels for patients receiving bempedoic acid was 6.66%, and the baseline HbA1c levels for patients receiving placebo was 6.76%. The baseline fasting glucose levels for patients receiving bempedoic acid was 133.7 mg/dl. The baseline fasting glucose levels for patients receiving placebo was 133.4 mg/dl. Changes in HbA1c levels were measured at week 12, and changes in fasting glucose levels were measured at weeks 4, 8, and 12.

A short description of data set [2]: Example 2: bempedoic acid vs placebo, statin-intolerant patients with a history of diabetes, 24 weeks. Format: in vivo, human. The following applies: statin intolerant (8% very low dose statin), FIG. 4 and FIG. 5.
Source text: as §1
345 total patients with statin intolerance (8% very low dose statin) were treated for 24 weeks. […] Patients were treated with bempedoic acid or placebo. The baseline HbA1c levels for patients receiving bempedoic acid was 6.91%, and the baseline HbA1c levels for patients receiving placebo was 7.12%. The baseline fasting glucose levels for patients receiving bempedoic acid was 130.7 mg/dl. The baseline fasting glucose levels for patients receiving placebo was 139.8 mg/dl. Changes in HbA1c levels were measured at week 12 and week 24 and changes in fasting glucose levels were measured at weeks 4, 12, and 24.

A short description of data set [3]: Muscle-related adverse events with add-on ETC-1002 therapy to statin therapy. Format: in vivo. From the text: In some aspects, the subject experiences an adverse event when on one or more statins at the lowest FDA approved dose, said adverse events being selected form the group consisting of muscle-related pain, aches, weakness, and cramping.
Data set [4] can be described thus: Example 1: bempedoic acid vs placebo, patients with a history of diabetes on MTD statin, 52 weeks (HbA1c, fasting glucose). Format: in vivo, human. The following applies: background MTD statin (50% high intensity), FIG. 2 and FIG. 3.
Source text: as §1
2230 total patients were receiving background MTD statin (50% high intensity) for 52 weeks. […] Patients were treated with bempedoic acid or placebo. The baseline HbA1c levels for patients receiving bempedoic acid was 6.85%, and the baseline HbA1c levels for patients receiving placebo was 6.89%. The baseline fasting glucose levels for patients receiving bempedoic acid was 131.4 mg/dl. The baseline fasting glucose levels for patients receiving placebo was 130.6 mg/dl. Changes in HbA1c levels were measured at week 12 and week 52 and changes in fasting glucose levels were measured at weeks 4, 8, 12, 24, and 36 and 52.

Data set [5] in a line: Pharmacokinetics of ETC-1002. Conditions: human, in vivo. On the procedure: In some aspects, the methods herein provide for treating cardiovascular disease and/or reducing the risk of cardiovascular disease in a subject comprising administering an amount of a composition comprising ETC-1002 which is rapidly absorbed having a Tmax at less than about 4 hours.
Data set [6] in a line: Cumulative data of Examples 1-4: new onset or worsening of diabetes. Format: in vivo, human. The following applies: patients taking statins plus bempedoic acid; statins plus placebo 5.6%.
Data set [7] is described as follows: Thorough QT/QTc (TQT) study of ETC-1002. Format: in vivo.

With `CC(C)(CCCCCC(O)CCCCCC(C)(C)C(=O)O)C(=O)O` [ETC-1002, 8-hydroxy-2,2,14,14 tetramethylpentadecanedioic acid], the “incidence of diabetes-related phenotypes, worsening of diabetes, new onset of diabetes” value in data set [1] was “reduces the incidence of diabetes-related phenotypes, worsening of diabetes, and new onset of diabetes relative to placebo”; in data set [2], “reduces incidence of diabetes-related phenotypes, worsening of diabetes, and new onset of diabetes relative to placebo”; in data set [4], “reduces the incidence of diabetes-related phenotypes, worsening of diabetes, and new onset of diabetes relative to placebo”. The “muscle-related adverse events that began or increased during statin therapy” value in data set [3] was “significantly lowered or even resolved”. For the same compound, in data set [5] (rapidly absorbed), the Tmax was below 4 h. Also, the half-life in data set [5] (systemic exposure, AUCtau,ss) was in the range of 15 to 27 h. The “frequency of new onset or worsening of diabetes and diabetes-related symptoms” value in data set [6] is listed as 4%. In addition, the “QTc or QT/QTc prolongation” value in data set [7] (TQT study) was “does not prolong QTc or QT/QTc”. Moreover, in data set [7] (add-on ETC-1002 therapy), the “heart rate and PR and QRS intervals” value is “does not affect subject heart rate and PR and QRS intervals”.
